Measured values published in patent US20050079186A1, “Therapeutic vaccine peptide complex for preventing and treating disorders in mammals” (ORIDAN, Inc., priority 2001, published 2005).

How the values were obtained:
[1] = system: IgG2 specific to the peptides A16E and/or A16G; assay: ELISA detection of IgG2 specific to the peptides A16E and A16G; type: in vivo, dog; conditions: vaccinated dogs, ELISA towards the corresponding peptides; for SEROLOGY ELISA IgG2 (positive/negative): 2 months and 12 months after the infectious test; for SEROLOGY ELISA IgG2 (optical density): cut off 0.300 OD
From the text: Detection of immunoglobulins of the isotype IgG2 of dogs, specifically of the peptides A16E and A16G and their derivatives:
This detection is done by the ELISA method according to the microtitration technique of Kweider et al (J. Immunol. 1987, 138, 299) using a bonded anti IgG2. For this method, the peptides are biotinylated prior to coating on microplates.
(§1) The biological analyses consist of: • biochemical analyses: urea, creatine, transaminases • hematological analyses: count, formula • serology leishmaniasis: quantitative anti-Leishmania immunofluorescence, dosage by the ELISA method of IgG2s specific to the peptides A16E and/or A16G • cellular response tests: IDR test (IntraDermoReaction) done with leishmanines and also with A16E and A16G peptides, dosage of NO and lymphoblastic proliferation.

Leishmania [2] = assay: Leishmaniasis serology: quantitative anti-Leishmania immunofluorescence; type: in vivo, dog; design: key: +: IF: Immunofluorescence (considered positive if the titer is ≧1/100); − = absence; conditions: healthy dogs vaccinated with peptide(s) 50 μg + muramyl dipeptide 100 μg; analyses 2 months and 12 months after the infectious test
From the text: In parallel to the study of the specific activation of the T lymphocytes the Th1 type by intradermoreaction, dosage of the NO (NO is synthesized by monocytes activated by the cytokines of the T cells of the Th1 type) and lymphocyte proliferation, a serological monitoring by traditional immunofluorescence using strips coated with the promastigotes (serological reference method for canine leishmaniasis) is done.
as §1

[3] = system: peripheral blood mononuclear cells (PBMC); assay: Lymphocyte (lymphoblastic) proliferation test; type: cell-based, dog; conditions: vaccinated dogs; 2 months after the infectious test
Method: Next, a test is done on the lymphocyte proliferation.
The peripheral blood mononuclear cells (PBMC) of dogs are separated on the Ficoll gradient (density 1.078) by centrifugation at 800 g for 20 mn at ambient temperature. These cells are brought under cultivation on a plate having 96 wells at a concentration of 2.10^5 cells per well in the presence of 2 μg per ml of Concanavalin A (Sigma), 5 μg per ml of ES P (excretion—secretion promastigotes) or […] of supernatants of culture harvested in the stationary phase of growth of promastigotes (SP) per well, and in the absence of any additive in a volume of […] of the medium RPMI 1640 containing 5% decomplemented fetal calf serum, 2 mM of L-glutamine, 100 U of penicillin per ml, […] of streptomycin per ml. The optimal antigen and mitogen concentrations have been determined in prior experiments. […] The cells are harvested over a filter and the incorporation of the radioactivity is determined by counting in a scintillating liquid (β-counter). […]
The lymphocytary proliferation has also been estimated by visual readings in a photon microscope (−: negative; +/−: slight proliferation; +: little proliferation less than 5 points per microscopic field; ++: mean proliferation greater than 5 points; +++: strong proliferation).

Leishmania [4] = assay: Parasitemy: direct exam of bone marrow smear and cultivation on NNN medium; type: in vivo, dog; design: key: − = absence; conditions: vaccinated dogs, 2 months and 12 months after the infectious test
From the text: A parasitological exam was done from the sample taken directly from the candidate studied, a dog, for example.
A smear of a puncture of the bone marrow is made on a slide. This smear, fixed once by methanol, is stained with May-Grünwald-Geimsa and observed by an immersion microscope (x 1000).
Samples of the bone marrow are brought under cultivation in the biphase cultivation medium NNN (Novy and Mac Neal, 1904, 4. Infec. Dis., 1:1-30), of which RPMI 1640 supplemented with 20% decomplemented fetal calf serum constitutes the liquid phase. The blind subculturings were done every four to six days. The cultures are regularly observed in a photon microscope (×400) for 20 min.
The parasitemy was quantified as follows:
The infectious examination consists in intravenously injecting 106 treated promastigotes in metacyclic phase in the complement of a healthy dog and 5.106 peritoneal macrophages of a healthy dog, infected in vitro by the amastigotes.
The promastigotes and infected macrophages are diluted in sterile physiological serum for a final volume of 1.5 ml. This mixture is made just prior to injection.
To these analyses must be added the search for Leishmania by direct observation in a microscope and cultivation on NNN medium from bone marrow after the infectious test.

[5] = system: cell-mediated immunity of the Th1 type; assay: Intra Dermo Reaction (IDR) test; type: in vivo, dog; conditions: vaccinated dogs, 2 months after the infectious test; for IDR A16E: IDR done with peptide A16E; for IDR A16G: IDR done with peptide A16G; for IDR Leishmanines: read 48 h after intradermoinjection
Method: Evidence of the involvement of a cell-mediated immunity of the Th1 type:
Leishmanias of the promastigote forms are cultivated in the standard culture media. Parasites are harvested from the end of the exponential phase (6-7 days). The parasitic residue is washed three times by centrifugation (2500 g, […], 4° C.) in a PBS buffer.
After having verified the viability of the parasites using a vital stain (Trypan Blue), a suspension containing […] parasites per ml is inactivated in a PBS buffer containing 0.01% merthiolate (Pinelli et al., 1994, Infect. Immun., 62: 229-235). This constitutes the leishmanias for the intradermoreaction test (IDR).
Dogs are placed in lateral decubitus and a delicate and non-irritating shearing is done on the thoracic zone approximately 5 cm by 10 cm behind the elbow. Four circles 10 mm in diameter are marked using a felt-tip pen.
Into the center of the circles, 0.1 ml of solution is injected in an intradermo-injection. Two circles receive the solution of leishmanias and the 2 other circles receive the saline methiolated solution in the negative control. The reading of the Intra Dermo Reaction (IDR) is done 48 hours later using an allergologic gauge.
The test is considered positive if the mean of the two observed induration diameters is greater than or equal to 5 mm. The observation of an erythema without induration will be considered to be a negative test (Pinelli et al., 1994, Infect. Immun., 62: 229-235; Marty et al., 1994, Trans. Roy. Soc. Trop. Med. Hyg., 88, 658-659).
The IDRs can also be performed with a solution of peptides A16E and A16G or their derivatives and MDP, for example, in proportions of 10 μg of peptides for 20 μg of MDP.

Substance | SEROLOGY ELISA IgG2 (positive/negative) [1] | SEROLOGY ELISA IgG2 (optical density) [1] [OD] | SEROLOGY IF Quantitative (Leishmania [2]) | Lymphoblastic Proliferation Test, reading in a photon microscope [3] | Cultivation on NNN Medium (Leishmania [4]) | PARASITEMY Direct Exam (Leishmania [4]) | IDR A16E [5] | IDR A16G [5] | IDR Leishmanines [5]
A-A-R-S-A-R-S-R-E-G-Y-S-L-T-D-E [A16E, 16 amino acid peptide specific to Leishmania] | + (ELISA: Cut off = 0.300 OD (optical density)) | 0.700 | − | + (little proliferation less than 5 points per microscopic field) | − | − | + (The Intra Dermo Reaction test is considered positive (+) if the induration is ≧5 mm 48 h. after intradermoinjection) | Limit | + (The Intra Dermo Reaction test is considered positive (+) if the induration is ≧5 mm 48 h. after intradermoinjection)
A-A-S-S-T-P-S-P-G-S-G-C-E-V-D-G [A16G, 16 amino acid peptide specific to Leishmania] | + (ELISA: Cut off = 0.300 OD (optical density)) | 0.520 | − | ++ (mean proliferation greater than 5 points) | − | − | Limit | + (The Intra Dermo Reaction test is considered positive (+) if the induration is ≧5 mm 48 h. after intradermoinjection) | + (The Intra Dermo Reaction test is considered positive (+) if the induration is ≧5 mm 48 h. after intradermoinjection)
